Assay results from patent US20120129712A1, “ANTIBODIES DIRECTED TO TRA ANTIGENS, AND METHODS OF PRODUCTION, SCREENING AND ANALYSIS OF SAID ANTIBODIES, AS WELL AS METHODS OF ANALYSIS OF STEM CELLS AND CANCER CELL” (GLYKOS FINLAND OY, priority 2009, published 2012).
“Also recorded” adds a separate entry of the source.

Legend:
[1] = tested on: Tra-1-60 antibody; assay: Glycan microarray analysis (Consortium for Functional Glycomics printed array v3.2), binding of Tra-1-60
Method: (§1) Tra-1-81 and Tra-1-60 antibodies were from Chemicon (MAB4381 and MAB4361, respectively).
(§2) Glycan microarray analysis was carried out by the Consortium for Functional Glycomics. Glycan microarrays were printed as described (Blixt 2004). Version 3.2 of the human printed glycan array was used for analysis. Binding analysis was performed at […] of antibody. Data are reported as average RFU of 6 replicates after removal of highest and lowest values.

[2] = tested on: Tra-1-81 antibody; assay: Glycan microarray analysis (Consortium for Functional Glycomics printed array v3.2), binding of Tra-1-81; set-up: RFU (glycan binding signal of Tra-1-81): dose or concentration left out as unconfirmed; details: for binding of Tra-1-81 to the glycan, in words: glycan microarray; for RFU (glycan binding signal of Tra-1-81): Tra-1-81 (Chemicon MAB4381), average RFU of 6 replicates after removal of highest and lowest values
Method: as §1, §2

## Galb1-3GlcNAcb1-3Galb1-4Glcb-Sp10 [Chart # 131]
[1]
  binding of Tra-1-60 to the glycan, in words: very weak or non-essential binding
[2]
  binding of Tra-1-81 to the glycan, in words: weakly bound

## Galb1-3GlcNacb1-3(Galb1-3GlcNacb1-3Galb1-4GlcNacb1-6)Galb1-4Glcb-Sp0 [Chart # 379]
[2]
  RFU (glycan binding signal of Tra-1-81): 147 RFU
  binding of Tra-1-81 to the glycan, in words: specifically bound

## Galb1-3GlcNAcb1-3Galb1-4GlcNAcb-Sp0 [Chart # 130]
[1]
  binding of Tra-1-60 to the glycan, in words: exclusively bound
[2]
  RFU (glycan binding signal of Tra-1-81): 721 RFU
[2]; listed as Galβ1-3GlcNAcβ1-3Galβ1-4GlcNAc
  binding of Tra-1-81 to the glycan, in words: binding; also recorded: specifically bound

## Lewis a
[2]
  binding of Tra-1-81 to the glycan, in words: weakly bound
